In patent US10004701B2, “Methods and compositions for treating infection” (UNIVERSITY OF ROCHESTER, priority 2012, dated 2018):
Where a name gives a salt, the structure may show the parent alone. Read-outs that look alike come from different tables or passages of the source.

Columns and labels:
Assay in all cases: AK assay 384-well format, Prestwick library screening
E. faecium = type: cell-based, Enterococcus faecium; settings: 50 μM final drug concentration; for fold induction at 50 µM: Enterococcus faecium, 3 h
[1] = test system: S. aureus strain USA300-0114; type: cell-based, Staphylococcus aureus; settings: 50 μM final drug concentration; for fold induction at 50 µM: Staphylococcus aureus, USA300, 3 h
K. pneumoniae = type: cell-based, Klebsiella pneumoniae; settings: 50 μM final drug concentration; for fold induction at 50 µM: Klebsiella pneumoniae, 3 h
[2] = test system: A. baumannii strain 98-37-09; type: cell-based, Acinetobacter baumannii; settings: 50 μM final drug concentration; for fold induction at 50 µM: Acinetobacter baumannii, 983709, 3 h
P. aeruginosa = type: cell-based, Pseudomonas aeruginosa; settings: 50 μM final drug concentration; for fold induction at 50 µM: Pseudomonas aeruginosa, 3 h
E. cloacae = type: cell-based, Enterobacter cloacae; settings: 50 μM final drug concentration; for fold induction at 50 µM: Enterobacter cloacae, 3 h
E. coli = type: cell-based, Escherichia coli; settings: 50 μM final drug concentration; for fold induction at 50 µM: Escherichia coli, 3 h
[3] = 384-well format, cutoff for positive-scoring molecules 3-fold increase, read-out: AK-based Prestwick Library Screening Results, E. faecium (increase in extracellular AK activity)
[4] = 384-well format, cutoff for positive-scoring molecules 3-fold increase, read-out: AK-based Prestwick Library Screening Results, S. aureus (increase in extracellular AK activity)
[5] = 384-well format, cutoff for positive-scoring molecules 3-fold increase, read-out: AK-based Prestwick Library Screening Results, K. pneumoniae (increase in extracellular AK activity)
[6] = 384-well format, cutoff for positive-scoring molecules 3-fold increase, read-out: AK-based Prestwick Library Screening Results, A. baumannii (increase in extracellular AK activity)
[7] = 384-well format, cutoff for positive-scoring molecules 3-fold increase, read-out: AK-based Prestwick Library Screening Results, P. aeruginosa (increase in extracellular AK activity)
[8] = 384-well format, cutoff for positive-scoring molecules 3-fold increase, read-out: AK-based Prestwick Library Screening Results, E. cloacae (increase in extracellular AK activity)
[9] = 384-well format, cutoff for positive-scoring molecules 3-fold increase, read-out: AK-based Prestwick Library Screening Results, E. coli (increase in extracellular AK activity)

## N[C@@H]1CONC1=O [D-cycloserine]
E. faecium; planktonic E. faecium, positive cutoff 3-fold increase
  AK-based Prestwick library screening result, E. faecium (fold increase in extracellular AK activity): 1.2
[1]; planktonic S. aureus, positive cutoff 3-fold increase
  AK-based Prestwick library screening result, S. aureus (fold increase in extracellular AK activity): 1.4
K. pneumoniae; planktonic K. pneumoniae, positive cutoff 3-fold increase
  AK-based Prestwick library screening result, K. pneumoniae (fold increase in extracellular AK activity): 1.1
[2]; planktonic A. baumannii, positive cutoff 3-fold increase
  AK-based Prestwick library screening result, A. baumannii (fold increase in extracellular AK activity): 1.0
P. aeruginosa; planktonic P. aeruginosa, positive cutoff 3-fold increase
  AK-based Prestwick library screening result, P. aeruginosa (fold increase in extracellular AK activity): 1.2
E. cloacae; planktonic E. cloacae, positive cutoff 3-fold increase
  AK-based Prestwick library screening result, E. cloacae (fold increase in extracellular AK activity): 1.2
E. coli; planktonic E. coli, positive cutoff 3-fold increase
  AK-based Prestwick library screening result, E. coli (fold increase in extracellular AK activity): 1.4

## COc1ccccc1N1CCN(CCCCNC(=O)c2ccc3ccccc3c2)CC1 [DO 897/99]
E. faecium; planktonic, […]
  AK-based Prestwick Library Screening Results, E. faecium (fold increase in extracellular AK activity): 1.0
[1]; planktonic, […]
  AK-based Prestwick Library Screening Results, S. aureus (fold increase in extracellular AK activity): 1.1
K. pneumoniae; planktonic, […]
  AK-based Prestwick Library Screening Results, K. pneumoniae (fold increase in extracellular AK activity): 1.3
[2]; planktonic, […]
  AK-based Prestwick Library Screening Results, A. baumannii (fold increase in extracellular AK activity): 1.2
P. aeruginosa; planktonic, […]
  AK-based Prestwick Library Screening Results, P. aeruginosa (fold increase in extracellular AK activity): 1.3
E. cloacae; planktonic, […]
  AK-based Prestwick Library Screening Results, E. cloacae (fold increase in extracellular AK activity): 1.7
E. coli; planktonic, […]
  AK-based Prestwick Library Screening Results, E. coli (fold increase in extracellular AK activity): 1.4

## CN(C)/N=N/c1[nH]cnc1C(N)=O [Dacarbazine]
E. faecium; planktonic E. faecium, cutoff for positive-scoring molecules 3-fold increase, read-out: AK-based Prestwick Library Screening Results, E. faecium (increase in extracellular AK activity)
  fold induction at 50 µM: 1.1
[1]; planktonic S. aureus, cutoff for positive-scoring molecules 3-fold increase, read-out: AK-based Prestwick Library Screening Results, S. aureus (increase in extracellular AK activity)
  fold induction at 50 µM: 0.7
K. pneumoniae; planktonic K. pneumoniae, cutoff for positive-scoring molecules 3-fold increase, read-out: AK-based Prestwick Library Screening Results, K. pneumoniae (increase in extracellular AK activity)
  fold induction at 50 µM: 3.8
[2]; planktonic A. baumannii, cutoff for positive-scoring molecules 3-fold increase, read-out: AK-based Prestwick Library Screening Results, A. baumannii (increase in extracellular AK activity)
  fold induction at 50 µM: 1.6
P. aeruginosa; planktonic P. aeruginosa, cutoff for positive-scoring molecules 3-fold increase, read-out: AK-based Prestwick Library Screening Results, P. aeruginosa (increase in extracellular AK activity)
  fold induction at 50 µM: 0.9
E. cloacae; planktonic E. cloacae, cutoff for positive-scoring molecules 3-fold increase, read-out: AK-based Prestwick Library Screening Results, E. cloacae (increase in extracellular AK activity)
  fold induction at 50 µM: 0.8
E. coli; planktonic E. coli, cutoff for positive-scoring molecules 3-fold increase, read-out: AK-based Prestwick Library Screening Results, E. coli (increase in extracellular AK activity)
  fold induction at 50 µM: 2

## C#C[C@]1(O)CC[C@H]2[C@@H]3CCC4=Cc5oncc5C[C@]4(C)[C@H]3CC[C@@]21C [Danazol]
E. faecium; [3]
  fold induction at 50 µM: 0.9
[1]; [4]
  fold induction at 50 µM: 0.6
K. pneumoniae; [5]
  fold induction at 50 µM: 0.6
[2]; [6]
  fold induction at 50 µM: 0.9
P. aeruginosa; [7]
  fold induction at 50 µM: 0.8
E. cloacae; [8]
  fold induction at 50 µM: 0.9
E. coli; [9]
  fold induction at 50 µM: 0.7

## O=C1CN(/N=C/c2ccc(-c3ccc([N+](=O)[O-])cc3)o2)C(O)=N1 [Dantrolene sodium salt]
E. faecium; planktonic E. faecium, 384-well, cutoff for positive-scoring molecules 3-fold increase, read-out: AK-based Prestwick Library Screening Results: E. faecium (increase in extracellular AK activity)
  fold induction at 50 µM: 1
[1]; planktonic S. aureus, 384-well, cutoff for positive-scoring molecules 3-fold increase, read-out: AK-based Prestwick Library Screening Results: S. aureus (increase in extracellular AK activity)
  fold induction at 50 µM: 1.1
K. pneumoniae; planktonic K. pneumoniae, 384-well, cutoff for positive-scoring molecules 3-fold increase, read-out: AK-based Prestwick Library Screening Results: K. pneumoniae (increase in extracellular AK activity)
  fold induction at 50 µM: 0.9
[2]; planktonic A. baumannii, 384-well, cutoff for positive-scoring molecules 3-fold increase, read-out: AK-based Prestwick Library Screening Results: A. baumannii (increase in extracellular AK activity)
  fold induction at 50 µM: 1.1
P. aeruginosa; planktonic P. aeruginosa, 384-well, cutoff for positive-scoring molecules 3-fold increase, read-out: AK-based Prestwick Library Screening Results: P. aeruginosa (increase in extracellular AK activity)
  fold induction at 50 µM: 1.2
E. cloacae; planktonic E. cloacae, 384-well, cutoff for positive-scoring molecules 3-fold increase, read-out: AK-based Prestwick Library Screening Results: E. cloacae (increase in extracellular AK activity)
  fold induction at 50 µM: 1.5
E. coli; planktonic E. coli, 384-well, cutoff for positive-scoring molecules 3-fold increase, read-out: AK-based Prestwick Library Screening Results: E. coli (increase in extracellular AK activity)
  fold induction at 50 µM: 1

## Nc1ccc(S(=O)(=O)c2ccc(N)cc2)cc1 [Dapsone]
E. faecium; [3]
  fold induction at 50 µM: 0.9
[1]; [4]
  fold induction at 50 µM: 0.6
K. pneumoniae; [5]
  fold induction at 50 µM: 0.7
[2]; [6]
  fold induction at 50 µM: 1.3
P. aeruginosa; [7]
  fold induction at 50 µM: 0.8
E. cloacae; [8]
  fold induction at 50 µM: 1.1
E. coli; [9]
  fold induction at 50 µM: 0.8

## COc1cccc2c1C(=O)c1c(O)c3c(c(O)c1C2=O)C[C@@](O)(C(C)=O)C[C@@H]3O[C@H]1C[C@H](N)[C@H](O)[C@H](C)O1 [Daunorubicin hydrochloride]
E. faecium; planktonic E. faecium, […], read-out: AK-based Prestwick Library Screening Results, E. faecium (increase in extracellular AK activity)
  fold induction at 50 µM: 2.3
[1]; planktonic S. aureus, […], read-out: AK-based Prestwick Library Screening Results, S. aureus (increase in extracellular AK activity)
  fold induction at 50 µM: 2.1
K. pneumoniae; planktonic K. pneumoniae, […], read-out: AK-based Prestwick Library Screening Results, K. pneumoniae (increase in extracellular AK activity)
  fold induction at 50 µM: 0.5
[2]; planktonic A. baumannii, […], read-out: AK-based Prestwick Library Screening Results, A. baumannii (increase in extracellular AK activity)
  fold induction at 50 µM: 0.6
P. aeruginosa; planktonic P. aeruginosa, […], read-out: AK-based Prestwick Library Screening Results, P. aeruginosa (increase in extracellular AK activity)
  fold induction at 50 µM: 0.5
E. cloacae; planktonic E. cloacae, […], read-out: AK-based Prestwick Library Screening Results, E. cloacae (increase in extracellular AK activity)
  fold induction at 50 µM: 0.6
E. coli; planktonic E. coli, […], read-out: AK-based Prestwick Library Screening Results, E. coli (increase in extracellular AK activity)
  fold induction at 50 µM: 0.9

## N=C(N)N1CCc2ccccc2C1 [Debrisoquin sulfate]
E. faecium; planktonic, cutoff for positive 3-fold increase, read-out: AK-based Prestwick Library Screening Results, E. faecium (fold increase in extracellular AK activity)
  fold induction at 50 µM: 1
[1]; planktonic, cutoff for positive 3-fold increase, read-out: AK-based Prestwick Library Screening Results, S. aureus (fold increase in extracellular AK activity)
  fold induction at 50 µM: 0.9
K. pneumoniae; planktonic, cutoff for positive 3-fold increase, read-out: AK-based Prestwick Library Screening Results, K. pneumoniae (fold increase in extracellular AK activity)
  fold induction at 50 µM: 0.8
[2]; planktonic, cutoff for positive 3-fold increase, read-out: AK-based Prestwick Library Screening Results, A. baumannii (fold increase in extracellular AK activity)
  fold induction at 50 µM: 0.9
P. aeruginosa; planktonic, cutoff for positive 3-fold increase, read-out: AK-based Prestwick Library Screening Results, P. aeruginosa (fold increase in extracellular AK activity)
  fold induction at 50 µM: 1
E. cloacae; planktonic, cutoff for positive 3-fold increase, read-out: AK-based Prestwick Library Screening Results, E. cloacae (fold increase in extracellular AK activity)
  fold induction at 50 µM: 1.7
E. coli; planktonic, cutoff for positive 3-fold increase, read-out: AK-based Prestwick Library Screening Results, E. coli (fold increase in extracellular AK activity)
  fold induction at 50 µM: 1.2

## C[N+](C)(C)CCCCCCCCCC[N+](C)(C)C [Decamethonium bromide]
E. faecium; cutoff for positive-scoring molecules 3-fold increase, read-out: AK-based Prestwick Library Screening Results, E. faecium (fold increase in extracellular AK activity)
  fold induction at 50 µM: 0.9
[1]; cutoff for positive-scoring molecules 3-fold increase, read-out: AK-based Prestwick Library Screening Results, S. aureus (fold increase in extracellular AK activity)
  fold induction at 50 µM: 0.4
K. pneumoniae; cutoff for positive-scoring molecules 3-fold increase, read-out: AK-based Prestwick Library Screening Results, K. pneumoniae (fold increase in extracellular AK activity)
  fold induction at 50 µM: 0.5
[2]; cutoff for positive-scoring molecules 3-fold increase, read-out: AK-based Prestwick Library Screening Results, A. baumannii (fold increase in extracellular AK activity)
  fold induction at 50 µM: 0.5
P. aeruginosa; cutoff for positive-scoring molecules 3-fold increase, read-out: AK-based Prestwick Library Screening Results, P. aeruginosa (fold increase in extracellular AK activity)
  fold induction at 50 µM: 0.4
E. cloacae; cutoff for positive-scoring molecules 3-fold increase, read-out: AK-based Prestwick Library Screening Results, E. cloacae (fold increase in extracellular AK activity)
  fold induction at 50 µM: 0.5
E. coli; cutoff for positive-scoring molecules 3-fold increase, read-out: AK-based Prestwick Library Screening Results, E. coli (fold increase in extracellular AK activity)
  fold induction at 50 µM: 0.5
